Values after ≈ are worked out from the molar mass of the structure shown.

For orientation: MIC means the lowest concentration found to suppress growth. Low values mean greater potency, high ones weaker potency.

What all share (assay type): cell-based
Assay [1] deals with Aspergillus fumigatus. Briefly: Antibacterial and antifungal activity of lanomycin, agar dilution assay (Table 4). Particulars: SC2100, Aspergillus fumigatus SC 2100. The protocol:
(§1) *Minimal inhibitory concentrations were determined by agar dilution assay
(Agar dilution tests growth on a series of plates holding different concentrations.)

The test system of the next assay is Proteus mirabilis. The description is as above. The following applies: SC3855; Proteus mirabilis SC 3855. The protocol:
as §1

For a further assay, the system named is Klebsiella aerogenes. The description is as above. The following applies: SC10440; Klebsiella aerogenes SC 10440. The protocol:
as §1

The test system of a further assay is Micrococcus luteus. Described as above. The following applies: SC2495; Micrococcus luteus SC 2495. The protocol:
as §1

In a further assay the test system is Candida guillermondii. The assay is described as above. Particulars: SC2996, Candida guillermondii SC 2996. The protocol:
as §1

The next assay deals with Candida albicans. Described as above. The protocol: as §1
Assay [2] relates to Trichophyton mentagrophytes. The assay is described as above. Particulars: SC2637, Trichophyton mentagrophytes SC 2637. The protocol:
as §1

The test system of assay [3] is Trichophyton rubrum. Described as above. Particulars: SC9199, Trichophyton rubrum SC 9199. The protocol:
as §1

In another assay the test system is Escherichia coli. The description is as above. The following applies: SC8294; Escherichia coli SC 8294. The protocol: as §1
Another assay deals with Staphylococcus aureus. Described as above. As to the method: as §1
The subject of a further assay is Pseudomonas aeruginosa. The assay is described as above. The following applies: SC8329; Pseudomonas aeruginosa SC 8329. As to the method:
as §1

The next assay concerns Candida tropicalis. The description is as above. Particulars: SC2963, Candida tropicalis SC 2963. The protocol: as §1
For another assay, the system named is Enterococcus faecalis. The assay is described as above. The following applies: SC9011; Enterococcus faecalis SC 9011. As to the method:
as §1

In assay [4] the test system is Aspergillus fumigatus. Briefly: Activity of lanomycin against filamentous fungi, agar dilution (Table 6). As to the method:
(§2) MICs were determined by the agar dilution method using a medium composed of tryptone (5 g), malt extract (3 g), glucose (10 g) and yeast extract (3 g) in 1 L distiled water; 10^4 cfu of the test organism was applied to the agar.
(§3) MICs were determined as in Table 5 except that the inoculum was 10^3 cfu.

A further assay relates to Epidermophyton floccosum. The assay is described as above. Particulars: SC9185; Epidermophyton floccosum SC 9185; 10^3 cfu. The protocol:
as §2, §3

The subject of another assay is Microsporum canis. Described as above. The following applies: SC9237; Microsporum canis SC 9237; 10^3 cfu. As to the method: as §2, §3
The test system of assay [5] is Trichophyton mentagrophytes. The description is as above. The following applies: SC2637; Trichophyton mentagrophytes SC 2637; 10^3 cfu. The protocol: as §2, §3
In assay [6] the test system is Trichophyton rubrum. The assay is described as above. The following applies: SC9199; Trichophyton rubrum SC 9199; 10^3 cfu. The protocol: as §2, §3

For `C/C=C/C=C/C=C(\C)[C@H]1OC[C@@H](C)[C@@H](OC)[C@@H]1OC(=O)CN` (relative stereo) [Lanomycin], the MIC in the assay with Aspergillus fumigatus [1] was 100 µg/mL (≈ 323 µM); in the assay with Proteus mirabilis, > 100 µg/mL; in the assay on Klebsiella aerogenes it was > 100 µg/mL; in the assay on Micrococcus luteus, > 100 µg/mL; with Candida guillermondii, 1.6 µg/mL (≈ 5.17 µM); against Candida albicans (SC5314, Candida albicans SC 5314), > 100 µg/mL. Besides, the MIC against Candida albicans (SC11422, Candida albicans SC 11422) was 100 µg/mL (≈ 323 µM); in assay [2] it was 0.8 µg/mL (≈ 2.59 µM); in the assay on Trichophyton rubrum [3] it was 1.6 µg/mL (≈ 5.17 µM); against Escherichia coli, > 100 µg/mL; against Staphylococcus aureus (SC1276, Staphylococcus aureus SC 1276) it was > 100 µg/mL; against Staphylococcus aureus (SC2399, Staphylococcus aureus SC 2399), > 100 µg/mL. Moreover, the MIC was > 100 µg/mL in the assay with Pseudomonas aeruginosa; 25 µg/mL (≈ 80.8 µM) in the assay on Candida tropicalis; > 100 µg/mL in the assay with Enterococcus faecalis; 100 µg/mL (≈ 323 µM) in the assay on Aspergillus fumigatus [4] (SC2100, Aspergillus fumigatus SC 2100, 10^3 cfu); 0.4 µg/mL (≈ 1.29 µM) with Epidermophyton floccosum; 0.4 µg/mL (≈ 1.29 µM) against Microsporum canis. Also, the results for the MIC (in assay [5]; against Trichophyton rubrum [6]) were 0.4 µg/mL (≈ 1.29 µM) and 1.6 µg/mL (≈ 5.17 µM), respectively. In the assay on Aspergillus fumigatus [4] (in words, Table 6), the “activity against Aspergillus fumigatus” value was “inactive”.

The values are drawn from US5270334A, “4-methoxy-5-methyl-pyran-3-ol natural products and derivatives thereof” (E. R. Squibb & Sons, Inc., priority 1992, dated 1993).
